Laboratory results: publication PMC4199632, “Exploring the Anti-Cancer Activity of Novel Thiosemicarbazones Generated through the Combination of Retro-Fragments: Dissection of Critical Structure-Activity Relationships” (PLoS ONE, 2014)

Tests used:
[1] = system: HCT116 p53−/− colon cancer cells; assay: Proliferation assay (MTS, 96 h); format: cell-based, human; conditions: for IC50: Homo sapiens, HCT-116, 96 h, 96 h incubation, MTS, mean ±SD (3 experiments); for Therapeutic index NHDF vs. HCT116 p53−/−: NHDF cell IC50 divided by HCT116 p53−/− IC50
Method in brief: (§1)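 HCT116 p53+/+, HCT116 p53−/− and NHDF cells were seeded 24 h before a 96 h compound exposure at 37 °C, with final DMSO <0.05%. Viability was read by MTS absorbance at 490 nm after 1 h; IC50 was the concentration reducing absorbance to 50% of untreated control.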

[2] = system: HCT116 p53+/+ colon cancer cells; assay: Proliferation assay (MTS, 96 h); format: cell-based, human; conditions: for IC50: Homo sapiens, HCT-116, 96 h incubation, MTS, mean ±SD (3 experiments); for Therapeutic index NHDF vs. HCT116 p53+/+: NHDF cell IC50 divided by HCT116 p53+/+ IC50
Method in brief: as §1

[3] = system: HeLa cervical carcinoma cells; assay: Proliferation assay (crystal violet, 72 h); format: cell-based; conditions: Homo sapiens, 72 h incubation, mean ±SD (3 experiments)
Method in brief: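 Cells seeded 24 h before treatment, then exposed at 37 °C for 72 h (SK-N-MC, Raji, HeLa) or 96 h (HCT116, NHDF); final DMSO <0.05%. Read-outs: MTT at 570 nm (SK-N-MC, Raji), crystal violet at 595 nm (HeLa), MTS at 490 nm (HCT116, NHDF); IC50 is 50% absorbance versus untreated control, triplicates repeated three times.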

[4] = system: SK-N-MC cells; assay: Inhibition of cellular 59Fe uptake from 59Fe2-Tf; format: cell-based, human; conditions: chelator 25 µM; for Internalized 59Fe uptake from 59Fe2-Tf (% of the control): 59Fe2-Tf 0.75 µM, 3 h/37°C
Procedure: The iron transport protein, Tf (Sigma-Aldrich), was labeled with ^59Fe (PerkinElmer Life and Analytical Sciences, Boston, MA) to form ^59Fe2-Tf using standard methods, [7]. Unbound ^59Fe was removed by passage through a Sephadex G25 column and was followed by exhaustive dialysis, [7].
The ability of the chelators to prevent the cellular uptake of ^59Fe from ^59Fe2-Tf was examined using standard methods, [14], [17], [18], [50]. A monolayer of SK-N-MC cells was incubated with medium containing ^59Fe2-Tf (0.75 µM) and the chelator (25 µM) for 3 h at 37°C. The medium was then removed and the cells were washed four times with ice-cold PBS. The cells were then incubated for 30 min at 4°C with the general protease, Pronase (1 mg/mL; Sigma-Aldrich), to remove membrane-bound ^59Fe. The cells were removed using a plastic spatula and centrifuged at 14,000 rpm/1 min to separate internalized from membrane-bound ^59Fe. The cell pellet was resuspended in 1 mL of PBS and the internalized ^59Fe was measured on a γ-scintillation counter. Internalized ^59Fe uptake was calculated as a percentage of the control (medium alone). Again, the novel ligands were compared to DFO and Dp44mT as their ability to inhibit cellular ^59Fe uptake has been extensively characterized using SK-N-MC cells, [14], [17], [18], [50].
Figure 8 Effect of (A) series 1, (B) series 2, (C) series 3, (D) series 4, (E) series 5 and (F) series 6 chelators, relative to the controls DFO and Dp44mT, on ^59Fe uptake from ^59Fe-transferrin by SK-N-MC cells. Cells were incubated for 3 h/37°C with ^59Fe-transferrin (0.75 µM) in the presence or absence of the chelators (25 µM). At the end of this incubation, cells were washed 4 times with ice-cold PBS. Internalization of ^59Fe was assessed by incubation for 30 min/4°C with the protease, Pronase (1 mg/mL). Cellular ^59Fe was then assessed using a γ-scintillation counter. Results are mean ±SD (3 experiments).

Row | SMILES | IC50 [1] | IC50 [2] | IC50 [3] | Inhibition of 59Fe uptake compared with controls [4] | Therapeutic index NHDF vs. HCT116 p53−/− [1] | Therapeutic index NHDF vs. HCT116 p53+/+ [2] | Internalized 59Fe uptake from 59Fe2-Tf (% of the control) [4]
1 | S=C(NN=C(c1ccccn1)c1ccccn1)N1CCN(c2cnccn2)CC1 [1e] | 31 ± 3 nM | 38 ± 3 nM | 720 ± 70 nM |  |  |  | 
2 | CCN1CCN(C(=S)N/N=C/c2ccc3ccccc3n2)CC1 [2a] | 3550 ± 1230 nM | 1440 ± 690 nM | 430 ± 160 nM | comparable ability to inhibit ^59Fe uptake to the control medium |  |  | 
3 | S=C(N/N=C/c1ccc2ccccc2n1)N1CCN(c2ccccc2)CC1 [2b] | 90 ± 40 nM | 42 ± 3 nM | 200 ± 70 nM | comparable inhibition of ^59Fe uptake to that of DFO | 0.4 | 0.8 | 
4 | CN(C(=S)N/N=C/c1ccc2ccccc2n1)C1CCCCC1 [2f] | 35 ± 3 nM | 26 ± 1 nM | 940 ± 450 nM | comparable inhibition of ^59Fe uptake to that of DFO | 0.4 | 0.6 | 
5 | CN(C(=S)N/N=C/c1cnc2ccccc2n1)C1CCCCC1 [5f] | 1020 ± 540 nM | 1240 ± 450 nM | 4090 ± 2070 nM | comparable inhibition of ^59Fe uptake to that of DFO |  |  | 
6 | CN(C(=S)N/N=C/c1ccccc1O)C1CCCCC1 [6f] | > 25000 nM | > 25000 nM | 10100 ± 3600 nM |  |  |  | 3.6–11.5%
7 | CC(=O)N(O)CCCCCNC(=O)CCC(=O)N(O)CCCCCNC(=O)CCC(=O)N(O)CCCCCN [DFO, desferrioxamine, reference compound] | > 25000 nM | > 25000 nM | 14300 ± 960 nM |  |  |  | 83%
8 | CN(C)C(=S)NN=C(c1ccccn1)c1ccccn1 [Dp44mT, di-2-pyridylketone 4,4-dimethyl-3-thiosemicarbazone, reference compound] | 5 ± 2 nM | 2 ± 1 nM | 40 ± 10 nM |  | 3076 | 7690 | 6%
